For the experiment, the target named is T1, soluble guanylate cyclase (Homo sapiens, UniProt Q02153).
T1 construct: The guanylate cyclase activity in the supernatant after incubation with and without the test substance; endogenous in cells; host or cells: human blood platelets, supernatant of homogenate
T1 sequence (Q02153 1-619): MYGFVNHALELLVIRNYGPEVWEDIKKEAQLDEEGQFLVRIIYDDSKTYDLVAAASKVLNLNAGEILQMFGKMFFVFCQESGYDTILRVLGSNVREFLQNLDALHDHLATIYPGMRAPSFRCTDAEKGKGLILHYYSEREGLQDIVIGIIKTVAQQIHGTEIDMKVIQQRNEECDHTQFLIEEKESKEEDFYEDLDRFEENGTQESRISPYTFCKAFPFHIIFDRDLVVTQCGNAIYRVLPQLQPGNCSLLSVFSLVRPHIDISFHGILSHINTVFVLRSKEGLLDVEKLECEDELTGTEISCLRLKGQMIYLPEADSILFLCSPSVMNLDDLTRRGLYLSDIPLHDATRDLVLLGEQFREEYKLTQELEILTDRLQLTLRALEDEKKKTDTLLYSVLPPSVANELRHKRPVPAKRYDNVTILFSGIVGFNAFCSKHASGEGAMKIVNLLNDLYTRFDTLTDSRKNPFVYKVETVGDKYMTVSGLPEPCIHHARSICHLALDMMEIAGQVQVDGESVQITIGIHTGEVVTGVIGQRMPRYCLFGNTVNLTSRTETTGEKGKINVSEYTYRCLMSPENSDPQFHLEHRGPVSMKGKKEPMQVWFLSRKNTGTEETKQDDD
T1 sequence (Q02108 1-690 partner): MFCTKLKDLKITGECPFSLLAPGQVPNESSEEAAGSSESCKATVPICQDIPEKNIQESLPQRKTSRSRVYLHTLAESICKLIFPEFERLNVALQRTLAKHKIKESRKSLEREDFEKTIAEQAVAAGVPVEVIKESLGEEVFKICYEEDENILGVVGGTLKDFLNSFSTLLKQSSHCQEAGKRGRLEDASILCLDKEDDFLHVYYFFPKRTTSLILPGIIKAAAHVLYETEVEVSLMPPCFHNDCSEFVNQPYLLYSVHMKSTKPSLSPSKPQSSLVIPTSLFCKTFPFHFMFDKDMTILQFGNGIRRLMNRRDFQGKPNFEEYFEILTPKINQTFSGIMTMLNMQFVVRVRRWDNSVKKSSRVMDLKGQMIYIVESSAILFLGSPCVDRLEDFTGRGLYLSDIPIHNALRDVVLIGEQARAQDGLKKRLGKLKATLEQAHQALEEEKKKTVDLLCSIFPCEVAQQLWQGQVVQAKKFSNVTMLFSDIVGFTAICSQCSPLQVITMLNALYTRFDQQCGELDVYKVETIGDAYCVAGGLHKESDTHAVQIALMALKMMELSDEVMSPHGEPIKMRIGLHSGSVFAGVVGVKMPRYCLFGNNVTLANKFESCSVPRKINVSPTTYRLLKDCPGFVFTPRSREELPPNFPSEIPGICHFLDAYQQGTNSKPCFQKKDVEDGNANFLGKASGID
Kind of experiment: Stimulation of guanylate cyclase from blood platelets (RIA). The format is biochemical. The note with it: 37° C.

As for `COc1ccc(Cl)cc1-[n+]1noc([NH-])n1` [Example 20], the Guanylate cyclase activity is 2225 pmole c-GMP/mg prot. × 15 minutes (0.01 μM) and 47298 pmole c-GMP/mg prot. × 15 minutes (10 μm (so in the source)).

The values are drawn from patent publication US5405857A, “3-substituted 1,2,3,4,-oxatriazole-5-imine compounds, a process for the preparation thereof and a pharmaceutical preparation containing said compounds” (A/S GEA Farmaceutisk Fabrik, priority 1991, dated 1995).
